Results as given in PubChem BioAssay AID330 (DTP/NCI, 2004).
Several values for one entry are separate records, joined by “and”; a condition that tells them apart may be missing. Equal entries are not always repeated. Inconclusive results and toxic doses are left out. The calls were made as follows: active = survival T/C of 150% or more; inactive = T/C below 125% in these data.

Test system: P388 leukemia ip, CD2F1 mice, survival T/C
Assay: NCI In Vivo Anticancer Drug Screen. Data for tumor model P388 Leukemia (intraperitoneal) in CD2F1 (CDF1) mice
Details: endpoint: median survival time, higher = longer survival
Outline: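 Mice carrying the transplanted tumor received test compound or vehicle. Survival was recorded in each group, and the value is the treated-group measurement divided by that of the vehicle-treated control group.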

[1] = dose: 50.0 mg/kg/injection, schedule: Q01DX005 (ip), vehicle: saline with Tween-80
[2] = dose: 100.0 mg/kg/injection, schedule: Q01DX005 (ip), vehicle: saline with Tween-80
[3] = dose: 200.0 mg/kg/injection, schedule: Q01DX005 (ip), vehicle: saline with Tween-80
[4] = dose: 25.0 mg/kg/injection, schedule: Q01DX009 (ip), vehicle: saline with Tween-80
[5] = dose: 50.0 mg/kg/injection, schedule: Q01DX009 (ip), vehicle: saline with Tween-80
[6] = dose: 100.0 mg/kg/injection, schedule: Q01DX009 (ip), vehicle: saline with Tween-80

Measured: T/C

N#Cc1ccc(OC(=O)Nc2ccc(Cl)c(Cl)c2)cc1
inactive: dose: 60.0 mg/kg/injection, schedule: Q01DX005 (ip), vehicle: Klucel (hydroxypropylcellulose) (HPC) 118 % of control | dose: 120.0 mg/kg/injection, schedule: Q01DX005 (ip), vehicle: Klucel (hydroxypropylcellulose) (HPC) 107 % of control | dose: 240.0 mg/kg/injection, schedule: Q01DX005 (ip), vehicle: Klucel (hydroxypropylcellulose) (HPC) 115 % of control

CCOC(=O)C1OC(C2(C)OC3(OC4(C=CC3O)OC(C(C)C(=O)C(C)C(O)C(C)CC(C)c3c(Cl)cc(C)c(O)c3C(=O)O)C(C)CC4C)C(C)C2OC)CC1O (stereo unspecified)
inactive: dose: 1.25 mg/kg/injection, schedule: Q01DX005 (ip), vehicle: Klucel (hydroxypropylcellulose) (HPC) 107 % of control | dose: 2.5 mg/kg/injection, schedule: Q01DX005 (ip), vehicle: Klucel (hydroxypropylcellulose) (HPC) 100 % of control

N#Cc1sc(SCC(=O)O)c(-[n+]2ccccc2)c1N
inactive: dose: 25.0 mg/kg/injection, schedule: Q04DX002 (ip), vehicle: saline with Tween-80 95 % of control | dose: 50.0 mg/kg/injection, schedule: Q04DX002 (ip), vehicle: saline with Tween-80 104 % of control | dose: 100.0 mg/kg/injection, schedule: Q04DX002 (ip), vehicle: saline with Tween-80 99 % of control

CCOC(=O)C1=C(c2ccccc2)OC(N)=C(C#N)C1c1ccc(C)cc1 (stereo unspecified)
inactive: dose: 50.0 mg/kg/injection, schedule: Q01DX005 (ip), vehicle: Klucel (hydroxypropylcellulose) (HPC) 113 % of control | dose: 100.0 mg/kg/injection, schedule: Q01DX005 (ip), vehicle: Klucel (hydroxypropylcellulose) (HPC) 101 % of control | dose: 200.0 mg/kg/injection, schedule: Q01DX005 (ip), vehicle: Klucel (hydroxypropylcellulose) (HPC) 103 % of control

COc1ccc(/C=N\N2CN(C(CC(N)=O)C(=O)O)C(O)(CCl)N=C2N)cc1OC (stereo unspecified)
inactive: dose: 60.0 mg/kg/injection, schedule: Q01DX005 (ip), vehicle: saline 95 % of control | dose: 120.0 mg/kg/injection, schedule: Q01DX005 (ip), vehicle: saline 98 % of control | dose: 240.0 mg/kg/injection, schedule: Q01DX005 (ip), vehicle: saline 98 % of control

COc1ccc(C2C3CCN2CC3)cc1 (stereo unspecified)
inactive: dose: 6.25 mg/kg/injection, schedule: Q01DX009 (ip), vehicle: saline 111 % of control | dose: 12.5 mg/kg/injection, schedule: Q01DX009 (ip), vehicle: saline 109 % of control

CCC(C)N=C1NS(=O)(=O)c2ccccc21 (stereo unspecified)
inactive: [1] 105 % of control | [2] 105 % of control | [3] 102 % of control

Cn1cnc([N+](=O)[O-])c1Sc1ncccn1
inactive: [4] 106 % of control | dose: 25.0 mg/kg/injection, schedule: Q01DX009 (ip), vehicle: saline 98 % of control | [5] 98 % of control | dose: 50.0 mg/kg/injection, schedule: Q01DX009 (ip), vehicle: saline 104 % of control and 108 % of control | [6] 100 % of control | dose: 100.0 mg/kg/injection, schedule: Q01DX009 (ip), vehicle: saline 108 % of control and 112 % of control | dose: 200.0 mg/kg/injection, schedule: Q01DX009 (ip), vehicle: saline with Tween-80 106 % of control | dose: 200.0 mg/kg/injection, schedule: Q01DX009 (ip), vehicle: saline 114 % of control and 122 % of control

O=S1(=O)Cc2c(Br)c(Br)c(Br)c(Br)c2C1
inactive: dose: 12.5 mg/kg/injection, schedule: Q01DX009 (ip), vehicle: saline sonified 109 % of control | dose: 25.0 mg/kg/injection, schedule: Q01DX009 (ip), vehicle: saline sonified 109 % of control | dose: 50.0 mg/kg/injection, schedule: Q01DX009 (ip), vehicle: saline sonified 109 % of control

COc1cc(C2c3cc4c(cc3OC(C)(O)C2C)OCO4)cc(OC)c1OC (stereo unspecified)
inactive: dose: 12.5 mg/kg/injection, schedule: Q01DX005 (ip), vehicle: saline 104 % of control and 105 % of control | dose: 25.0 mg/kg/injection, schedule: Q01DX005 (ip), vehicle: saline with Tween-80 107 % of control | dose: 25.0 mg/kg/injection, schedule: Q01DX005 (ip), vehicle: saline 105 % of control | [1] 103 % of control | dose: 50.0 mg/kg/injection, schedule: Q01DX005 (ip), vehicle: saline 102 % of control and 105 % of control | dose: 100.0 mg/kg/injection, schedule: Q01DX005 (ip), vehicle: saline 107 % of control and 113 % of control | dose: 200.0 mg/kg/injection, schedule: Q01DX005 (ip), vehicle: saline 111 % of control

COc1nc2c(c(=O)n1C)C(=O)CN2C1OC(COC(C)=O)C(OC(C)=O)C(OC(C)=O)C1OC(C)=O (stereo unspecified)
inactive: [1] 103 % of control | [2] 108 % of control | [3] 103 % of control

Oc1ccc2ccccc2c1N=Nc1ccc(F)cc1
inactive: dose: 100.0 mg/kg/injection, schedule: Q04DX003 (ip), vehicle: saline with Tween-80 100 % of control | dose: 200.0 mg/kg/injection, schedule: Q04DX003 (ip), vehicle: saline with Tween-80 100 % of control | dose: 400.0 mg/kg/injection, schedule: Q04DX003 (ip), vehicle: saline with Tween-80 104 % of control

CC(C)CC(=O)CC1(C)CCC(c2ccoc2)O1 (stereo unspecified)
inactive: [4] 102 % of control | [5] 101 % of control | [6] 107 % of control
